Source: patent publication EP4603105A1, “PHARMACEUTICAL COMPOSITION CONTAINING CYCLIC COMPOUND HAVING SELECTIVE KRAS INHIBITORY EFFECT AGAINST HRAS AND NRAS” (CHUGAI SEIYAKU KABUSHIKI KAISHA, priority 2022, dated 2024)
Read-outs that look alike come from different tables or passages of the source. *1 amine or outer side, *2 acyl side, *3 side chain or, on linkers, in order; H or OH if unused. Where a SMILES comes first, the peptide text is derived from it. Bridges are numbered along the chain shown (N, C = ends). [ ]: non-standard residue; d: D form. The star is where a group is joined. hPhe(3-Cl-4-CF3) = N[C@@H](CCc1ccc(C(F)(F)F)c(Cl)c1)C(=O)O; X33 = O=C([C@H](Cc1ccc(C(F)(F)F)cc1)N(CC1CC1)[*:1])[*:2]; NPrPhe(4-CF3) = CCCN[C@@H](Cc1ccc(C(F)(F)F)cc1)C(=O)O; NMeGly(cPent) = CN[C@H](C(=O)O)C1CCCC1; Pro(4,4-F2) = O=C(O)[C@@H]1CC(F)(F)CN1; Gly(cPent) = N[C@H](C(=O)O)C1CCCC1; Gly(cBu) = N[C@H](C(=O)O)C1CCC1; NMeD = CN[C@@H](CC(=O)O)C(=O)O; NMeL = CN[C@@H](CC(C)C)C(=O)O; Morpholide = C1CN(*)CCO1; NMeA = CN[C@@H](C)C(=O)O; Ac5c = NC1(C(=O)O)CCCC1; Aze = O=C(O)[C@@H]1CCN1; Sar = CNCC(=O)O

How the values were obtained:
HRAS wild-type protein = HRAS wild-type protein (Homo sapiens, UniProt P01112); assay: Binding to HRAS by surface plasmon resonance (SPR), KD and KD ratio to KRAS
Procedure, shortened: (§1)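 Each cycle, GDP-bound biotin-Avi RAS was captured (~100–300 RU), compound concentrations were injected low to high for 75 s each at 100 µL/min, then the chip was regenerated. Buffer: HBS pH 7.4, 10 mM MgCl2, 10 µM GDP, 1 mM DTT, 4% DMSO; 30°C. KD from a 1:1 binding model.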

[1] = tested on: human lung cancer strain NCI-H441; assay type: cell-based
Procedure, shortened: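 Signal came from […] measured per well once the reagent was added. Beforehand, cells were cultured at 37°C and 5% carbon dioxide on a compound series serially diluted in dimethyl sulfoxide.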

[2] = target: GDP-bound NRAS wild-type protein (Homo sapiens, UniProt P01111); assay: Binding to NRAS by surface plasmon resonance (SPR), KD and KD ratio to KRAS
Procedure, shortened: as §1

[3] = ratio of KD for HRAS wild-type protein to KD for KRAS
[4] = ratio of KD for GDP-bound NRAS wild-type protein to KD for KRAS
[5] = ratio of KD value for HRAS wild-type protein to KD value for KRAS (SPR)
[6] = ratio of KD value for GDP-bound NRAS wild-type protein to KD value for KRAS (SPR)
[7] = ratio of the KD value with respect to HRAS wild-type protein to the KD value with respect to KRAS
[8] = ratio of the KD value with respect to GDP-bound NRAS wild-type protein to the KD value with respect to KRAS

Chain of GDP-bound NRAS wild-type protein (P01111 whole entry): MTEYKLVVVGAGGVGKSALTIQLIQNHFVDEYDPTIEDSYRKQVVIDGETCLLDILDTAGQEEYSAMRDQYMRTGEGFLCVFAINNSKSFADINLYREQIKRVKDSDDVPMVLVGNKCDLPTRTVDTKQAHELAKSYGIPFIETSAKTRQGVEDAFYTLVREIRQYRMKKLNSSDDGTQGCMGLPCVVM
Chain of HRAS wild-type protein (P01112 whole entry): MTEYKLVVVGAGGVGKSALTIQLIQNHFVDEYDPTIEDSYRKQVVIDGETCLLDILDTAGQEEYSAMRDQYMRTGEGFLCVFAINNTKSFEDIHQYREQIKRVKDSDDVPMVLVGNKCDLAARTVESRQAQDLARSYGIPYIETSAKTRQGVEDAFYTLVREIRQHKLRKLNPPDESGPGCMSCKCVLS

SMILES	HRAS /KRAS (HRAS wild-type protein; [3])	IC50 [1] [nM]	NRAS /KRAS [2, 4]	HRAS /KRAS (HRAS wild-type protein; [5])	NRAS /KRAS [2, 6]	HRAS /KRAS (HRAS wild-type protein; [7])	NRAS /KRAS [2, 8]	IC50 ([1]; NCI-H441 cells, 4 days, CellTiter-Glo, read-out: NCl-H441 IC50) [nM]
CCCN1C(=O)CN(C)C(=O)CN(C)C(=O)[C@H](C2CCC2)NC(=O)[C@H](CC(C)C)N(C)C(=O)C[C@@H](C(=O)N2CCOCC2)N(C)C(=O)[C@H](C2CCCC2)N(C)C(=O)C2(CCCC2)NC(=O)[C@@H]2CCCN2C(=O)[C@H](CCc2ccc(C(F)(F)F)c(Cl)c2)NC(=O)CN(C)C(=O)[C@@H]1Cc1ccc(C(F)(F)F)cc1 [PP0250] ([NMeL][Gly(cBu)][Sar][Sar][NPrPhe(4-CF3)][Sar][hPhe(3-Cl-4-CF3)]P[Ac5c][NMeGly(cPent)][NMeD]-Morpholide; lactam N-11)	C (A compound having a KD ratio of 0.1 or more and less than 3 is denoted as C)	6.7	B (a compound having 3 or more and less than 10 is denoted as B)	–	–	–	–	–
CCCC[C@H]1C(=O)N[C@@H]([C@@H](C)CC)C(=O)N(C)CC(=O)N(C)[C@H]2C/C=C\CCN(C2=O)[C@@H](Cc2ccc(C)cc2)C(=O)N(C)CC(=O)N[C@@H](CCc2cc(F)c(C(F)(F)F)c(F)c2)C(=O)N2C[C@H](OCC)C[C@H]2C(=O)NC2(CCC2)C(=O)N(C)[C@@H](C2CCCC2)C(=O)N(C)[C@H](C(=O)N(C)CC)CC(=O)N1C [PP2796]	A (a compound having 10 or more and less than 20 is denoted as A)	9.6	A (a compound having 10 or more and less than 20 is denoted as A)	–	–	–	–	–
CC[C@H](C)[C@@H]1NC(=O)[C@H](CC2CC2)N(C)C(=O)C[C@@H](C(=O)N2CCCC2)N(C)C(=O)[C@H](C2CCCC2)N(C)C(=O)C2(CCC2)NC(=O)[C@@H]2C[C@H](C)CN2C(=O)[C@H](CCc2cc(F)c(C(F)(F)F)c(F)c2)NC(=O)CN(C)C(=O)[C@H](Cc2ccc(C(F)(F)F)cc2)N2CC/C=C\C[C@@H](C2=O)N(C)C(=O)CN(C)C1=O [PP1510]	–	34.5	–	A (a compound having 10 or more and less than 20 is denoted as A)	AA (a compound having 20 or more is denoted as AA)	–	–	–
CC[C@H](C)[C@@H]1NC(=O)[C@H](CC(C)C)N(C)C(=O)C[C@@H](C(=O)N2CCOCC2)N(C)C(=O)[C@H](C2CCCC2)N(C)C(=O)C2(CCCC2)NC(=O)[C@@H]2CCCN2C(=O)[C@H](CCc2ccc(C(F)(F)F)c(Cl)c2)NC(=O)CN(C)C(=O)[C@H](Cc2ccc(C(F)(F)F)cc2)N(CC2CC2)C(=O)CN(C)C(=O)CN(C)C1=O [PP0122] ([NMeL]I[Sar][Sar][X33][Sar][hPhe(3-Cl-4-CF3)]P[Ac5c][NMeGly(cPent)][NMeD]-Morpholide; lactam N-11)	C (A compound having a KD ratio of 0.1 or more and less than 3 is denoted as C)	12	C (A compound having a KD ratio of 0.1 or more and less than 3 is denoted as C)	–	–	–	–	–
CCO[C@@H]1C[C@H]2C(=O)NC3(CCCC3)C(=O)N(C)[C@@H](C3CCCC3)C(=O)N(C)[C@H](C(=O)N(C)C)CC(=O)N(C)[C@@H](C)C(=O)N[C@@H]([C@@H](C)CC)C(=O)N(C)CC(=O)N(C)[C@H]3CCCCCN(C3=O)[C@@H](Cc3ccc(C(F)(F)F)cc3)C(=O)N(C)CC(=O)N[C@@H](CCc3cc(F)c(C(F)(F)F)c(F)c3)C(=O)N2C1 [PP0475]	–	18.7	–	–	–	B (a compound having 3 or more and less than 10 is denoted as B)	B (a compound having 3 or more and less than 10 is denoted as B)	–
CCCN1C(=O)[C@@H]2CCN2C(=O)[C@H](C)N(C)C(=O)[C@H]([C@@H](C)CC)NC(=O)[C@H](CC(C)C)N(C)C(=O)C[C@@H](C(=O)N2CCOCC2)N(C)C(=O)[C@H](C2CCCC2)N(C)C(=O)C2(CCCC2)NC(=O)[C@@H]2CC(F)(F)CN2C(=O)[C@H](CCc2ccc(C(F)(F)F)c(Cl)c2)NC(=O)CN(C)C(=O)[C@@H]1Cc1ccc(C(F)(F)F)cc1 [PP0196] ([NMeL]I[NMeA][Aze][NPrPhe(4-CF3)][Sar][hPhe(3-Cl-4-CF3)][Pro(4,4-F2)][Ac5c][NMeGly(cPent)][NMeD]-Morpholide; lactam N-11)	C (A compound having a KD ratio of 0.1 or more and less than 3 is denoted as C)	3.7	C (A compound having a KD ratio of 0.1 or more and less than 3 is denoted as C)	–	–	–	–	–
CCCN1C(=O)[C@@H]2CCN2C(=O)[C@H](C)N(C)C(=O)[C@H](C2CCCC2)NC(=O)[C@H](CC(C)C)N(C)C(=O)C[C@@H](C(=O)N2CCOCC2)N(C)C(=O)[C@H](C2CCCC2)N(C)C(=O)C2(CCCC2)NC(=O)[C@@H]2CCCN2C(=O)[C@H](CCc2ccc(C(F)(F)F)c(Cl)c2)NC(=O)CN(C)C(=O)[C@@H]1Cc1ccc(C(F)(F)F)cc1 [PP0272] ([NMeL][Gly(cPent)][NMeA][Aze][NPrPhe(4-CF3)][Sar][hPhe(3-Cl-4-CF3)]P[Ac5c][NMeGly(cPent)][NMeD]-Morpholide; lactam N-11)	B (a compound having 3 or more and less than 10 is denoted as B)	3.7	C (A compound having a KD ratio of 0.1 or more and less than 3 is denoted as C)	–	–	–	–	–
CCOC[C@H]1C(=O)N[C@@H]([C@@H](C)CC)C(=O)N(C)CC(=O)N(C)[C@H]2C/C=C\CCN(C2=O)[C@@H](Cc2ccc(C(C)(F)F)cc2)C(=O)N(C)CC(=O)N[C@@H](CCc2ccc(C(F)(F)F)c(OC)c2)C(=O)N2C[C@@H](C)C[C@H]2C(=O)NC2(CC(C)(C)C2)C(=O)N(C)[C@@H](C2CCCC2)C(=O)N(C)[C@H](C(=O)N(C)CC)CC(=O)N1C [PP2699]	B (a compound having 3 or more and less than 10 is denoted as B)	–	A (a compound having 10 or more and less than 20 is denoted as A)	–	–	–	–	14.2
CC[C@H](C)[C@@H]1NC(=O)[C@H](CC(C)C)N(C)C(=O)C[C@@H](C(=O)N2CCOCC2)N(C)C(=O)[C@H](C2CCCC2)N(C)C(=O)C2(CCCC2)NC(=O)[C@@H]2C[C@H](OC)CN2C(=O)[C@H](CCc2cc(F)c(C(F)(F)F)c(F)c2)NC(=O)CN(C)C(=O)[C@H](Cc2ccc(C(F)(F)F)cc2)N2CCCCC[C@@H](C2=O)N(C)C(=O)CN(C)C1=O [PP0495]	–	837	–	–	–	B (a compound having 3 or more and less than 10 is denoted as B)	A (a compound having 10 or more and less than 20 is denoted as A)	–
CC[C@H](C)[C@@H]1NC(=O)[C@@H]2CCCCCN2C(=O)C[C@@H](C(=O)N2CCOCC2)N(C)C(=O)[C@H](C2CCCC2)N(C)C(=O)C2(CCCC2)NC(=O)[C@@H]2CCCN2C(=O)[C@H](CCc2cc(F)c(C(F)(F)F)c(F)c2)NC(=O)CN(C)C(=O)[C@H](Cc2ccc(C(F)(F)F)cc2)N2CCCCC[C@@H](C2=O)N(C)C(=O)CN(C)C1=O [PP0521]	–	586	–	–	–	B (a compound having 3 or more and less than 10 is denoted as B)	B (a compound having 3 or more and less than 10 is denoted as B)	–
CCO[C@@H]1C[C@H]2C(=O)NC3(CC(C)(C)C3)C(=O)N(C)[C@@H](C3CCCC3)C(=O)N3CCC[C@@H]3CC(=O)N(C)[C@@H](CC)C(=O)N[C@@H]([C@@H](C)CC)C(=O)N(C)CC(=O)N(C)[C@H]3C/C=C\CCN(C3=O)[C@@H](Cc3ccc(C(F)(F)F)cc3)C(=O)N(C)CC(=O)N[C@@H](CCc3cc(F)c(C(F)(F)F)c(F)c3)C(=O)N2C1 [PP1606]	–	12.6	–	B (a compound having 3 or more and less than 10 is denoted as B)	B (a compound having 3 or more and less than 10 is denoted as B)	–	–	–
CCC[C@H]1C(=O)N[C@@H]([C@@H](C)CC)C(=O)N(C2CC2)CC(=O)N(C)[C@H]2C/C=C\CCN(C2=O)[C@@H](Cc2ccc(C(F)(F)F)cc2)C(=O)N(C)CC(=O)N[C@@H](CCc2ccc(C(F)(F)F)c(OC)c2)C(=O)N2C[C@H](OCC)C[C@H]2C(=O)NC2(CC(C)(C)C2)C(=O)N(C)[C@@H](CC2CC2)C(=O)N(C)[C@H](C(=O)N(C)C)CC(=O)N1C [PP2815]	A (a compound having 10 or more and less than 20 is denoted as A)	188	A (a compound having 10 or more and less than 20 is denoted as A)	–	–	–	–	–
CC[C@H](C)[C@@H]1NC(=O)[C@H](CC(C)C)N(C)C(=O)C[C@@H](C(=O)N2CCOCC2)N(C)C(=O)[C@H](C2CCCC2)N(C)C(=O)C2(CCCC2)NC(=O)[C@@H]2CCCN2C(=O)[C@H](CCc2cc(F)c(C(F)(F)F)c(F)c2)NC(=O)CN(C)C(=O)[C@H](Cc2ccc(C(F)(F)F)cc2)N2CCCCC[C@@H](C2=O)N(C)C(=O)CN(CC)C1=O [PP0483]	–	525	–	–	–	B (a compound having 3 or more and less than 10 is denoted as B)	B (a compound having 3 or more and less than 10 is denoted as B)	–
CC[C@H](C)[C@@H]1NC(=O)[C@H](CC(C)C)N(C)C(=O)C[C@@H](C(=O)N2CCOCC2)N(C)C(=O)[C@H](C2CCCC2)N(C)C(=O)C2(CCCC2)NC(=O)[C@@H]2CCCN2C(=O)[C@H](CCc2ccc(C(F)(F)F)c(Cl)c2)NC(=O)CN(C)C(=O)[C@H](Cc2ccc(Cl)cc2)N2CC=CC[C@@H](C2=O)N(C)C(=O)CN(C)C1=O [PP0533]	–	8.9	–	–	–	C (A compound having a KD ratio of 0.1 or more and less than 3 is denoted as C)	C (A compound having a KD ratio of 0.1 or more and less than 3 is denoted as C)	–
CC[C@H](C)[C@@H]1NC(=O)[C@H](CC(C)C)N(C)C(=O)C[C@@H](C(=O)N2CCOCC2)N(C)C(=O)[C@H](C2CCCC2)N(C)C(=O)C2(CCCC2)NC(=O)[C@@H]2CCCN2C(=O)[C@H](CCc2ccc(C(F)(F)F)c(Cl)c2)NC(=O)CN(C)C(=O)[C@H](Cc2ccc(C)cc2)N2CCCCC[C@@H](C2=O)N(C)C(=O)CN(C)C1=O [PP0317]	B (a compound having 3 or more and less than 10 is denoted as B)	32.2	B (a compound having 3 or more and less than 10 is denoted as B)	–	–	–	–	–
